Converted amounts (≈) assume the structure as drawn.
Legend:
[1] = Determination of solubility in conventional solvents, visual inspection method; type: physicochemical; settings: thermodynamic from solid, 25° C.
Excerpt: If the sample is still not dissolved at a specific concentration, its solubility is expressed as “<specific concentration”;

[2] = Dynamic vapor sorption (DVS) / moisture absorption; type: physicochemical; settings: for weight change (DVS): range of 0% RH to 80% RH, 25° C.
Method: (4) Dynamic Water Adsorption (DVS), TA Instruments Q5000 TGA; controlling software: Thermal Advantage; analysis software: Universal Analysis; sample plate: platinum crucible; amount of the sample to be detected: 1-10 mg; protective gas: nitrogen; gas flow fate: 10 mL/min; detection method: equilibration at 25° C., humidity: 0%, isothermal treatment: 90 min, weight change to be detected: from 0% RH to 80% RH;
(§1) The moisture content, solubility and dissolution rate of the crystalline forms 1 and 2 were detected using the methods described above. The results are shown in Table 21, which indicate that the solubility, dissolution, and moisture content (total pharmaceutical properties) of the crystalline form 1 are higher than that of the crystalline form 2. Moreover, the crystalline forms 1 and 2 have the highest solubility in methanol.

[3] = Stability of the crystalline forms (HPLC, XRD, DSC); type: physicochemical; settings: for HPLC Maximum single impurity %: retention time (min) in brackets
Method: Experimental conditions: the samples were sealed and placed at 80° C. for 24 hours, and then placed in an open dish at 25° C./60% RH (relative humidity) and 40° C./75% RH for 7 days. Detection method: HPLC (only for the starting samples and samples placed at 80° C. for 24 hours), XRD, DSC.
In addition, the long-term stabilities of the crystalline form 1 for 12 months, 24 months, 36 months, and 48 months at 25° C./60% RH were also investigated.

[4] = Thermodynamic stability experiment in solvents at 60° C. (XRD); type: physicochemical; settings: one day
Method: The crystalline form 1, crystalline form 2, crystalline form 3 and crystalline form 7 of the compound of formula I were mixed with acetone, ethyl acetate, methanol, water and tetrahydrofuran respectively, and then kept at 60° C. for one day for the investigation of the thermodynamic stability of each crystalline form. Insoluble solid was recovered by filtration and analyzed by XRD. Analysis conditions: Shimadzu XRD-6000, CuK source (1.54056 A) 40 kV, 30 mA; detection angle: 5-50°, speed: 5°/min.

[5] = Stability of crystalline form 1 in aqueous methanol (XRPD detection); type: physicochemical
Excerpt: The stability of the crystalline form 1 in aqueous methanol solution at different temperature and for different time is as follows.

[6] = Solubility determination in water by HPLC; type: physicochemical; settings: suspension in water, 25° C.
Method: HPLC detection was performed using the crystalline form 1 as a standard, with its concentration of 204.2 μg*mL^−1 and its content set as 100%, and the detection was performed 7 times. The average peak area was 159.691 mAU*min (retention time was 7.4 min).

[7] = Solubility of crystalline forms 1 and 2 in various media; type: physicochemical
Excerpt: as §1

[8] = Dissolution rate of crystalline forms 1 and 2; type: physicochemical
Excerpt: as §1

[9] = Tissue accumulation experiment in tumor-bearing mice; type: in vivo, BALB/cA nude mice; set-up: content in Tumor / content in Liver / content in Kidney / content in Heart / content in Lung / content in Muscle / content in Brain: unit not given here
Method: Human colon cancer H-29 cells were implanted into the armpits of BALB/cA nude mice. Seven days after the implantation of H-29 cells, 8 female mice were administered with the crystalline form 1 (twice a day) at 40 mg/kg or sunitinib at 40 mg/kg (once a day). The drug administration was continuous for 21 days. Plasma, tissue and tumor samples were collected for analysis 4 hours after the administration on the 22nd day morning.

[10] = Grinding stability experiment (XRD); type: physicochemical; settings: ground and sieved, US standard 200-300 mesh
Method: Crystalline form 1 was ground and sieved. The US standard 200-300 mesh sieved samples were collected and XRD analyzed. Analysis conditions: Shimadzu XRD-6000, CuK source (1.54056 Å) 40 kV, 30 mA; detection angle: 5-50°, speed: 5°/min.

[11] = 40 mg/kg for 21 days (crystalline form 1 twice a day, sunitinib once a day), 4 hours after administration on day 22

- Solubility ([1]; acetone, organic solvent or mixture, read-out: solubility in acetone): 1000 to 2500 µg/mL (≈ 2280 to 5690 µM)
- Solubility ([1]; acetonitrile, organic solvent or mixture, read-out: solubility in acetonitrile): < 1000 µg/mL
- Solubility ([1]; ethanol, organic solvent or mixture, read-out: solubility in ethanol): 1000 to 2500 µg/mL (≈ 2280 to 5690 µM)
- Solubility ([1]; ethyl acetate, organic solvent or mixture, read-out: solubility in ethyl acetate): < 1000 µg/mL
- Solubility ([1]; methanol, organic solvent or mixture, read-out: solubility in methanol): 5000 to 12500 µg/mL (≈ 11400 to 28400 µM)
- Solubility ([1]; methyl tert-butyl ether, organic solvent or mixture, read-out: solubility in methyl tert-butyl ether): < 1000 µg/mL
- Solubility ([1]; n-heptane, organic solvent or mixture, read-out: solubility in n-heptane): < 1000 µg/mL
- Solubility ([1]; tetrahydrofuran, organic solvent or mixture, read-out: solubility in tetrahydrofuran): 1000 to 2500 µg/mL (≈ 2280 to 5690 µM)
- Solubility ([1]; toluene, organic solvent or mixture, read-out: solubility in toluene): < 1000 µg/mL
- Solubility ([1]; water, read-out: solubility in water): < 1000 µg/mL
- Moisture absorption ([2]; RH 50%): 2.015%
- Moisture absorption ([2]; RH 80%): 2.578%
- weight change (DVS) [2]: about 2.8%
- weight change (DVS) ([2]; listed as Crystalline form 1): 2.8%
- HPLC Purity % ([3]; 0 day (starting sample)): 99.67%
- HPLC Maximum single impurity % ([3]; 0 day (starting sample)): 0.22 (4.73) %
- long-term stability of the crystalline form ([3]; 12, 24, 36 and 48 months at 25° C./60% RH): substantially unchanged
- crystalline form and melting point by XRD and DSC ([3]; sealed 80° C. 24 hours, open dish 25° C./60% RH and 40° C./75% RH for 7 days): substantially unchanged
- HPLC Purity % ([3]; sealed, 80° C./24 h): 98.87%
- HPLC Maximum single impurity % ([3]; sealed, 80° C./24 h): 1.03 (4.73) %
- crystalline form recovered (XRD) ([4]; acetone, ethyl acetate, methanol or water, conversion not complete in methanol): converted to crystalline form 2
- crystalline form recovered (XRD) ([4]; tetrahydrofuran (THF)): to crystalline form 3
- XRPD detection ([5]; 2.0 g in 50 mL methanol, moisture (KF) 0.1%, 20-30° C., 2 hrs): form 1
- XRPD detection ([5]; 2.0 g in 50 mL methanol, moisture (KF) 0.1%, 20-30° C., 4 hrs): form 1
- XRPD detection ([5]; 2.0 g in 50 mL methanol, moisture (KF) 0.1%, 20-30° C., 8 hrs): form 1
- XRPD detection ([5]; 2.0 g in 50 mL methanol, moisture (KF) 0.1%, 20-30° C., 21 hrs): form 1
- XRPD detection ([5]; 2.0 g in 50 mL methanol, moisture (KF) 5.2%, 20-30° C., 2 hrs): form 1
- XRPD detection ([5]; 2.0 g in 50 mL methanol, moisture (KF) 5.2%, 20-30° C., 4 hrs): form 1
- XRPD detection ([5]; 2.0 g in 50 mL methanol, moisture (KF) 5.2%, 20-30° C., 8 hrs): form 1
- XRPD detection ([5]; 2.0 g in 50 mL methanol, moisture (KF) 5.2%, 20-30° C., 21 hrs): form 1
- XRPD detection ([5]; 2.0 g in 50 mL methanol, moisture (KF) 10%, 20-30° C., 2 hrs): form 1
- XRPD detection ([5]; 2.0 g in 50 mL methanol, moisture (KF) 10%, 20-30° C., 4 hrs): form 1
- XRPD detection ([5]; 2.0 g in 50 mL methanol, moisture (KF) 10%, 20-30° C., 8 hrs): form 1
- XRPD detection ([5]; 2.0 g in 50 mL methanol, moisture (KF) 10%, 20-30° C., 21 hrs): form 1
- XRPD detection ([5]; 5.0 g in 50 mL methanol, moisture (KF) 0.1%, reflux, 2 hrs): form 1
- XRPD detection ([5]; 5.0 g in 50 mL methanol, moisture (KF) 0.1%, reflux, 4 hrs): form 1
- XRPD detection ([5]; 5.0 g in 50 mL methanol, moisture (KF) 0.1%, reflux, 8 hrs): form 2
- XRPD detection ([5]; 5.0 g in 50 mL methanol, moisture (KF) 0.1%, reflux, 21 hrs): form 2
- XRPD detection ([5]; 5.0 g in 50 mL methanol, moisture (KF) 5.2%, reflux, 2 hrs): form 1
- XRPD detection ([5]; 5.0 g in 50 mL methanol, moisture (KF) 5.2%, reflux, 4 hrs): form 1 + form 2
- XRPD detection ([5]; 5.0 g in 50 mL methanol, moisture (KF) 5.2%, reflux, 8 hrs): form 2
- XRPD detection ([5]; 5.0 g in 50 mL methanol, moisture (KF) 5.2%, reflux, 21 hrs): form 2
- XRPD detection ([5]; 5.0 g in 50 mL methanol, moisture (KF) 10%, reflux, 2 hrs): form 1
- XRPD detection ([5]; 5.0 g in 50 mL methanol, moisture (KF) 10%, reflux, 4 hrs): form 2
- XRPD detection ([5]; 5.0 g in 50 mL methanol, moisture (KF) 10%, reflux, 8 hrs): form 2
- XRPD detection ([5]; 5.0 g in 50 mL methanol, moisture (KF) 10%, reflux, 21 hrs): form 2
- concentration (solubility in water) ([6]; 0.5 hours): 1.12 µg/mL
- concentration (solubility in water) ([6]; 4 hours): 1.32 µg/mL
- Solubility ([7]; 1% Tween 80): 60 µg/mL (≈ 137 µM)
- Solubility ([7]; 1% sodium lauryl sulfate): 3480 µg/mL (≈ 7920 µM)
- Solubility ([7]; 2% sodium lauryl sulfate): 3790 µg/mL (≈ 8620 µM)
- Solubility ([7]; PEG 400): 3660 µg/mL (≈ 8330 µM)
- Solubility ([7]; acetonitrile): 680 µg/mL (≈ 1550 µM)
- Solubility ([7]; aqueous solution with pH of 1.0-7.5): 0.12 to 0.53 µg/mL
- solubility at 4 h ([7]; artificial gastric juice, simulated gastric fluid, thermodynamic from solid, second line of this heading (Table 21 r21)): 0.43 µg/mL (≈ 0.978 µM)
- Solubility ([7]; ethanol): 2460 µg/mL (≈ 5600 µM)
- Solubility ([7]; glycerin): 570 µg/mL (≈ 1300 µM)
- Solubility ([7]; methanol): 8170 µg/mL (≈ 18600 µM)
- Internal dissolution rate [8]: 0.022 mg/(min · cm^2)
- content in Brain [9, 11]: 9.3
- content in Heart [9, 11]: 124.8
- content in Kidney [9, 11]: 418.3
- content in Liver [9, 11]: 1,715.3
- content in Lung [9, 11]: 144.9
- content in Muscle [9, 11]: 77.6
- content in Plasma [9, 11]: 191.6
- content in Tumor [9, 11]: 153.4
- content in plasma, compared with sunitinib ([9]; 40 mg/kg twice a day, 21 days): comparable to that of sunitinib
- stability during grinding (XRD pattern before and after) [10]: remained stable
SMILES: Cc1[nH]c(/C=C2\C(=O)Nc3ccc(F)cc32)c(C)c1C(=O)N[C@H]1CCN(C(=O)N(C)C)C1 [crystalline form 1, 5-[5-fluoro-2-oxo-1,2-dihydro-indole-(3Z)-ylidenemethyl]-2,4-dimethyl-1H-pyrrole-3-carboxylic acid ((S)-1-dimethylcarbamoyl-pyrrolidin-3-yl)-amide]
- tissue accumulation in all tested tissues, compared with sunitinib ([9]; 40 mg/kg twice a day, 21 days): significantly lower than that of sunitinib

From patent US12209080B2, “Polymorphic forms of kinase inhibitor compound, pharmaceutical composition containing same, preparation method therefor and use thereof” (EQUINOX SCIENCES, LLC, priority 2016, dated 2025)
